The values that follow come from patent US20080242713A1, “Novel 5-cyano-prostacyclin derivatives as agents for the treatment of autoimmune diseases” (priority 2007, published 2008).

The target in experiment [1] is T1, EP4 receptor (Homo sapiens, UniProt P35408). The experiment in a line: cAMP accumulation assay in cells expressing EP4 (Biological Example 2, tetrazole derivatives). The format is cell-based. The settings on record: cAMP luminescence, mean of triplicate. On the procedure: (§1) Commercial cAMP accumulation assays are typically competitive immunoassays in which free cAMP from cell lysates competes for antibody binding against a “labeled” cAMP molecule. This positive signal is generated in direct proportion to the amount of free cAMP. In our assays cAMP standards and samples are pipetted into the wells of a microplate. An antibody specific cAMP is added to the wells. A substrate is added to the wells and luminescence develops in proportion to the amount of cAMP which accumulated during treatment of cells which express the EP4 receptor with standards and samples. The intensity of the luminescence is measured in a luminometer.
T1 sequence (P35408 whole entry): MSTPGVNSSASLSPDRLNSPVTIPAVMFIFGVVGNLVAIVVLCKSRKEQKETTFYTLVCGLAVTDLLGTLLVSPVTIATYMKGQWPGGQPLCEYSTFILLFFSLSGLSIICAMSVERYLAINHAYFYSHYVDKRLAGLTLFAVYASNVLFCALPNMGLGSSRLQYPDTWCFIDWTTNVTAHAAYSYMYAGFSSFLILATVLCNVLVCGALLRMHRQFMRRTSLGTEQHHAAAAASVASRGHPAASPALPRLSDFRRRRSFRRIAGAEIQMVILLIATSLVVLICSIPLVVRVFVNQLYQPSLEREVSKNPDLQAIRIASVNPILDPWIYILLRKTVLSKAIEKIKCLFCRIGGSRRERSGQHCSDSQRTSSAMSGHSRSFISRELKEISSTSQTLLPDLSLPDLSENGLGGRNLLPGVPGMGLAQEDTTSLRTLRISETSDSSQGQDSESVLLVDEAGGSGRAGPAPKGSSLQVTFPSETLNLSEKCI
Results shown are the mean of triplicate determinations.
(Cyclic AMP is a second messenger, typically raised through Gs and lowered through Gi signalling.)

Experiment [2] addresses T1, EP4 receptor. The experiment in a line: cAMP accumulation assay in cells expressing EP4 (Biological Example 1, diol derivative). The format is cell-based. The conditions noted are these: for RLU - background: cAMP luminescence, mean of triplicate. On the procedure:
as §1
The response of the EP4 expressing cells treated with the diol derivative is compared to Nileprost. Results shown are the mean of triplicate determinations.

On to `CCCCC(C)[C@H](O)/C=C/[C@@H]1[C@H]2C/C(=C(\C#N)CCCc3nnn[nH]3)O[C@H]2C[C@H]1O` (stereo partly drawn) [Cpd. #1, α-[(3aR,4R,5R,6aS)-hexahydro-5-hydroxy-4-[(1E,3S)-3-hydroxy-4-methyl-1-octenyl]-2H-cyclopenta[b]furan-2-ylidene]-1H-tetrazole-5-2E-pentanenitrile], for which the RLU - background in experiment [1] (compound 0.005 nM) is 53600.00 RLU; in experiment [1] (compound 0.052 nM) it was 17642.67 RLU; in experiment [1] (compound 0.157 nM), 22533.33 RLU; in experiment [1] (compound 0.472 nM), 27365.33 RLU; in experiment [1] (compound 1.417 nM), 157357.33 RLU; in experiment [1] (compound 4.252 nM), 373856.00 RLU. Further, the RLU - background in experiment [1] (compound 12.757 nM) was 435810.67 RLU; in experiment [1] (compound 38.272 nM), 484954.67 RLU; in experiment [1] (compound 114.815 nM), 514858.67 RLU; in experiment [1] (compound 344.444 nM), 606992.00 RLU; in experiment [1] (compound 1033.333 nM), 584826.67 RLU; in experiment [1] (compound 3100.000 nM), 559813.33 RLU.

As to `CCCCC(C)[C@@H](O)/C=C/[C@@H]1[C@H]2C/C(=C(/C#N)CCCc3nnn[nH]3)O[C@H]2C[C@H]1O` (stereo partly drawn) [Cpd. #3, α-[(3a R,4R,5R,6aS)-hexahydro-5-hydroxy-4-[(1E,3R)-3-hydroxy-4-methyl-1-octenyl]-2H-cyclopenta[b]furan-2-ylidene]-1H-tetrazole-5-2Z-pentanenitrile], the RLU - background came to 76373.33 RLU in experiment [1] (compound 0.005 nM); 79997.33 RLU in experiment [1] (compound 0.052 nM); 83616.00 RLU in experiment [1] (compound 0.157 nM); 118397.33 RLU in experiment [1] (compound 0.472 nM); 273778.67 RLU in experiment [1] (compound 1.417 nM); 374920.00 RLU in experiment [1] (compound 4.252 nM). Also, the RLU - background in experiment [1] (compound 12.757 nM) amounted to 522154.67 RLU; in experiment [1] (compound 38.272 nM), 697208.00 RLU; in experiment [1] (compound 114.815 nM), 773429.33 RLU; in experiment [1] (compound 344.444 nM), 813525.33 RLU; in experiment [1] (compound 1033.333 nM), 710053.33 RLU; in experiment [1] (compound 3100.000 nM) it was 714320.00 RLU.

Take `CCCCC[C@H](O)/C=C/[C@@H]1[C@H]2CC(=C(C#N)CCCc3nnn[nH]3)O[C@H]2C[C@H]1O` [Cpd. #4, α-[(3aR,4R,5R,6aS)-hexahydro-5-hydroxy-4-[(1E,3S)-3-hydroxy-1-octenyl]-2H-cyclopenta[b]furan-2-ylidene]-1H-tetrazole-5-pentanenitrile]: the RLU - background is 146597.33 RLU in experiment [1] (compound 0.005 nM); 83650.67 RLU in experiment [1] (compound 0.052 nM); 40557.33 RLU in experiment [1] (compound 0.157 nM); 46426.67 RLU in experiment [1] (compound 0.472 nM); 82445.33 RLU in experiment [1] (compound 1.417 nM); 158224.00 RLU in experiment [1] (compound 4.252 nM). Also, the RLU - background is given as 429672.00 RLU in experiment [1] (compound 12.757 nM); 554328.00 RLU in experiment [1] (compound 38.272 nM); 813194.67 RLU in experiment [1] (compound 114.815 nM); 909808.00 RLU in experiment [1] (compound 344.444 nM); 808477.33 RLU in experiment [1] (compound 1033.333 nM); 820866.67 RLU in experiment [1] (compound 3100.000 nM).

As to `CCCCC(C)[C@H](O)/C=C/[C@@H]1[C@H]2C/C(=C(\C#N)CCCC(O)CO)O[C@H]2C[C@H]1O` (stereo partly drawn) [Cpd. #5, 2-[(3aR,4R,5R,6aS)-hexahydro-5-hydroxy-4-[(1E,3S)-3-hydroxy-4-methyl-1-octenyl]-2H-cyclopenta[b]furan-2-ylidene]-6,7-dihydroxy-, (2E)-heptanenitrile], the RLU - background was 0 RLU in experiment [2] (compound 0.010 nM); 0 RLU in experiment [2] (compound 0.152 nM); 0 RLU in experiment [2] (compound 0.457 nM); 152432 RLU in experiment [2] (compound 1.372 nM); 532234 RLU in experiment [2] (compound 4.115 nM); 912060 RLU in experiment [2] (compound 12.346 nM). The RLU - background came out at 1019082 RLU in experiment [2] (compound 37.037 nM); 1150386 RLU in experiment [2] (compound 111.111 nM); 1291820 RLU in experiment [2] (compound 333.333 nM); 1260692 RLU in experiment [2] (compound 1000.000 nM); 1201852 RLU in experiment [2] (compound 3000.000 nM); 1206470 RLU in experiment [2] (compound 9000.000 nM). In addition, in experiment [2] (result in words), the “EP4 agonist activity in the cAMP accumulation assay” value was “dose-responsively showed EP4 agonist activity”.

On to `CCCCC(C)C(O)C=CC1C(O)CC2OC(=C(C#N)CCCC(=O)O)CC21` (stereo not shown) [Nileprost, 5-cyano-16-methylprostacyclin, reference compound], for which the RLU - background in experiment [2] (compound 0.010 nM) worked out at 0 RLU; in experiment [2] (compound 0.152 nM), 850786 RLU; in experiment [2] (compound 0.457 nM), 1291900 RLU; in experiment [2] (compound 1.372 nM), 1521826 RLU; in experiment [2] (compound 4.115 nM), 1626762 RLU; in experiment [2] (compound 12.346 nM), 1589698 RLU. Further, the RLU - background in experiment [2] (compound 37.037 nM) was 1312998 RLU; in experiment [2] (compound 111.111 nM), 1258626 RLU; in experiment [2] (compound 333.333 nM), 1648306 RLU; in experiment [2] (compound 1000.000 nM) it was 1635488 RLU; in experiment [2] (compound 3000.000 nM) it was 1625442 RLU; in experiment [2] (compound 9000.000 nM) it was 1599712 RLU.
